Data on eight compounds can be found in PMC10503991, “Synthesis of some new isoxazole compounds and their biological tyrosinase and antioxidant activities” (Turkish Journal of Chemistry, 2021).

Data set [1] can be described thus: Cupric ion reducing (CUPRAC) method. Conditions: for CUPRAC (mg TEAC/mg): trolox equivalents per mg compound. Here is the method:
The capacity of 8–14 compounds to reduce cupric ions was established as it was described before. A reaction mixture was prepared by mixing a volume of CuCl2 (0.250 mL, 10 mM), neocuproine (0.250 mL, 7.5 mM in ethanol) and NH4Ac buffer (0.250 mL, 1 M, pH 7.0) with standard/compound solutions at different concentrations. SA blank was prepared by adding sample solution to premixed reaction mixture CuCl2. The absorbances of the blank and sample were read at 450 nm after a 30-min incubation at room temperature. The absorbance of the blank was subtracted from that of the sample. CUPRAC activity was expressed as equivalents of trolox (mg TEAC/mg compound).

Data set [2] is described as follows: DPPH free radical scavenging method. Conditions: concentration causing 50% scavenging of DPPH radical; Trolox standard. The protocol: The DPPH free radical scavenging activities of 8–14 compounds were determined using the method described before. Alcoholic solution of DPPH (1 mL, […] in methanol) was mixed with 8–14 compound solutions prepared in DMSO. […] DPPH gives a purple color in methanol. This color is decayed by antioxidant. So reduction in the absorbance indicates DPPH• scavenging activity. Trolox was used as standard radical scavenger and values were expressed as SC50 (μg compound per mL), the concentration of the samples that causes 50% scavenging of DPPH radical.
On the technique in general: The DPPH test is a chemical assay of radical scavenging.

The next data set has as its target mushroom tyrosinase (Agaricus bisporus, UniProt C7FF04). As to the kind of experiment: Mushroom tyrosinase inhibition assay (L-DOPA substrate, 475 nm). It counts as biochemical. Conditions: for IC50 values for the tyrosinase enzyme inhibition: abstract, unit not given; for Tyrosinase (IC50 μg/mL): mushroom tyrosinase, L-DOPA substrate, kojic acid positive control. Here is the method: The mushroom tyrosinase inhibition assay was carried out according previously reported method. […] After 10 min of a preincubation period at room temperature, the enzymatic reaction was initiated with the addition of L-DOPA (3 mM, 20 μL) as substrate. The absorbance was read at 475 nm. The compound concentration giving 50% inhibition of tyrosinase activity was determined by interpolation of concentration-response curves. […] The extract concentration giving 50% (IC50) of the original tyrosinase activity was determined.
The position, number and nature of the substituent on benzene and pyridine rings were varied in order to identify the most appropriate group.

Details of data set [3]: method as in PMID 33763478. The settings on record: comparator in literature study; cited from earlier work.

The melting point is the temperature, or range, at which the solid turns liquid.

Sequence of mushroom tyrosinase (C7FF04 1-392): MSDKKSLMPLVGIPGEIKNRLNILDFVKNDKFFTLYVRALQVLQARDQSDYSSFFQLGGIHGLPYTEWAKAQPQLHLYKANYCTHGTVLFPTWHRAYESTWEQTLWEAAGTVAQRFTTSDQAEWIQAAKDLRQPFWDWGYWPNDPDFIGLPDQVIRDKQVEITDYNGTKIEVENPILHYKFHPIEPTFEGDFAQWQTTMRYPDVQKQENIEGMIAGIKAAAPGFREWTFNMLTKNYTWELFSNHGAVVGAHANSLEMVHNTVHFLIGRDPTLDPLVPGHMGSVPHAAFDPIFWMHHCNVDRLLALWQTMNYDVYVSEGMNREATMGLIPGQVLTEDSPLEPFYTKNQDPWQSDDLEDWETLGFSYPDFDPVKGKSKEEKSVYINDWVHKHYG

In turn, `COc1ccc(OC)c(-c2cc(-c3ccc(O)cc3)no2)c1` [Compound 12, 3-(4-hydroxyphenyl)-5-(2,5-dimethoxyphenyl)isoxazole] gave a melting point of 176 to 178 °C. For the same compound, the “CUPRAC (mg TEAC/mg)” value in data set [1] was 1.233 ± 0.015 mg TEAC/mg. Further, the “DPPH, SC50” value in data set [2] was found to be 40.21 ± 2.71 µg/mL.

In turn, `Oc1cccc(-c2cc(-c3ccccc3)on2)c1` [Compound 10, 3-(3-hydroxyphenyl)-5-(phenyl)isoxazole] yielded a melting point of 230 to 231 °C. Also, the “CUPRAC (mg TEAC/mg)” value in data set [1] amounted to 0.789 ± 0.009 mg TEAC/mg. Also, the “DPPH, SC50” value in data set [2] is 65.65 ± 1.69 µg/mL. Moreover, at mushroom tyrosinase, the “IC50 values for the tyrosinase enzyme inhibition” value was “did not show any inhibition effect” and the “Tyrosinase (IC50 μg/mL)” value is “No inhibition”.

`COc1ccc(-c2cc(-c3ccc(OC)cc3OC)on2)cc1` [Compound 9, 3-(4-methoxyphenyl)-5-(2,4-dimethoxyphenyl)isoxazole]: the melting point fell in the range of 93 to 94 °C. Also, the “CUPRAC (mg TEAC/mg)” value in data set [1] was 0.856 ± 0.013 mg TEAC/mg. The “DPPH, SC50” value in data set [2] stood at 71.96 ± 2.36 µg/mL. At mushroom tyrosinase, the “IC50 values for the tyrosinase enzyme inhibition” value is listed as “did not show any inhibition effect” and the “Tyrosinase (IC50 μg/mL)” value is “No inhibition”.

In turn, `COc1cccc(-c2cc(-c3ccccn3)on2)c1` [Compound 13, 3-(3-methoxyphenyl)-5-(2-pyridinyl)isoxazole] registered a CUPRAC values in data set [1] (as printed in the results text b37) of 1.25 ± 0.019 mg TEAC/mg. Further, the “CUPRAC (mg TEAC/mg)” value in data set [1] is 1.245 ± 0.019 mg TEAC/mg. Further, the “DPPH, SC50” value in data set [2] is 57.32 ± 2.12 µg/mL.

On to `COc1ccc(-c2cc(-c3ccncc3)on2)cc1` [Compound 14, 3-(4-methoxyphenyl)-5-(4-pyridinyl)isoxazole], for which the melting point lay in the range of 141 to 143 °C. Further, the “CUPRAC (mg TEAC/mg)” value in data set [1] turned out to be 1.189 ± 0.021 mg TEAC/mg. Also, the “DPPH, SC50” value in data set [2] is 54.41 ± 2.87 µg/mL. Besides, on mushroom tyrosinase, the “IC50 values for the tyrosinase enzyme inhibition” value is listed as “did not show any inhibition effect” and the “Tyrosinase (IC50 μg/mL)” value is “No inhibition”.

On to `COc1ccc(-c2cc(-c3cccc(O)c3)no2)c(OC)c1` [Compound 11, 3-(3-hydroxyphenyl)-5-(2,4-dimethoxyphenyl)isoxazole], for which the melting point was in the range of 168 to 169 °C. Besides, the “CUPRAC (mg TEAC/mg)” value in data set [1] is given as 0.584 ± 0.011 mg TEAC/mg. In data set [2], the “DPPH, SC50” value is 81.52 ± 3.66 µg/mL.

Regarding `COc1ccccc1-c1cc(-c2ccc(OC)c(OC)c2OC)on1` [Compound 8, 3-(2-methoxyphenyl)-5-(2,3,4-trimethoxyphenyl)isoxazole], the melting point was 102 to 103 °C. The “CUPRAC (mg TEAC/mg)” value in data set [1] stood at 1.156 ± 0.026 mg TEAC/mg. For the same compound, the “DPPH, SC50” value in data set [2] came out at 61.42 ± 1.41 µg/mL.

Consider `Cc1c(C)c2c(c(C)c1O)CCC(C)(C(=O)O)O2` (centres unmarked) [Trolox, reference compound], for which the “DPPH, SC50” value in data set [2] was 5.56 ± 0.85 µg/mL. Also, the “antioxidant activity in DPPH assay IC50” value in data set [3] is 2.75 µg/mL.
